Data published in US20180305719A1, “Vectors For Integration Of DNA Into Genomes And Methods For Altering Gene Expression And Interrogating Gene Function” (The Board of Trustees of the University of Illinois, priority 2017, published 2018).

Legend:
Format in all cases: cell-based, human
[1] = tested on: NEUROD1; experiment: NEUROD1 expression by qPCR in HCT116 and MRC-5 cells
Protocol: (§1) 293T and HCT116 cells were obtained from the American Tissue Collection Center (ATCC) and were maintained in DMEM supplemented with 10% fetal bovine serum and 1% penicillin/streptomycin at 37° C. with 5% CO2. 293T and HCT116 cells were transfected with Lipofectamine 2000 (Invitrogen) according to manufacturer's instructions. Transfection efficiencies were routinely higher than 80% for 293T cells and higher than 50% for HCT116 cells as determined by fluorescent microscopy following delivery of a control GFP expression plasmid. Induction of gene expression, unless otherwise noted, was carried out with 200 ng/mL doxycycline in DMEM prepared with 10% tetracycline-free FBS for 4 days.
(§2) Cells were harvested and flash-frozen in liquid nitrogen prior to RNA-extraction using the RNeasy Plus RNA isolation kit (Qiagen) according to manufacturer's instructions. cDNA synthesis was carried out using the qScript cDNA Synthesis Kit (Quanta Biosciences) from 1 μg of RNA and reactions were performed as directed by the supplier. For RT-qPCR, SsoFast EvaGreen Supermix (Bio-Rad) was added to cDNA and primers targeting the gene of interest and GAPDH (Table 10). Following 30 s at 95° C., qPCR (5 s at 95° C., 20 s at 55° C., 40 total cycles) preceded melt-curve analysis of the product by the CFX Connect Real-Time System (Bio-Rad). Ct values were used to calculate changes in expression level, relative to GAPDH and control samples by the 2^−ΔΔCt method.
To further explore the trends we observed in 293T cells, NeuroD1 was targeted using the cdpTV in other cell lines.

[2] = tested on: NEUROD1; experiment: Activation of native gene expression in 293T cells, qPCR; settings: for induction of NEUROD1: 200 ng/mL doxycycline, NAVIa-edited 293T; for increase in NEUROD1 gene expression: idpTV-edited cells
Protocol: as §1, §2
In order to evaluate this gene activation architecture in the context of the human genome, three target genes were selected whose reported levels of activation utilizing CRISPRa are either high (ASCL1, ˜10^3-fold), medium (NEUROD1, ˜10^2-fold), or low (POU5F1, ˜10-fold). The primary sgRNAs targeting the genome were co-transfected into 293T cells with three plasmids containing (1) an expression cassette for active Cas9, (2) customized cspTV, cdpTV or idpTV, and (3) a universal secondary sgRNA. Following transfection, cells with integration of the TV were selected using puromycin and, in cells transfected with the idpTV, gene expression was induced with doxycycline. In parallel, one sgRNA or a mixture of 4 sgRNAs (previously validated for use with CRISPRa) were co-transfected into 293 Ts with dCas9-VPR for comparison of the NAVIa with CRISPRa. Gene expression using an individual sgRNA directing dCas9-VPR to target promoters was increased ˜10-fold for all targets tested but not statistically significant. Utilization of 4 sgRNAs simultaneously activated gene expression more effectively than 1 sgRNA (ASCL1: ˜1800-fold, NEUROD1: ˜2900-fold, POU5F:1 ˜90-fold). […] However, the idpTV (ASCL1: ˜7200-fold, NEUROD1: ˜76000-fold, POU5F1: ˜5370-fold) surpassed activation obtained using dCas9-VPR using 4 sgRNAs (FIG. 14B).

[3] = tested on: HCT116 cells; experiment: Quantification of integration efficiency (colonies after antibiotic selection); settings: for Avg. Colonies: 450,000 cells transfected
Protocol: HCT116 cells were transfected with individual RGNs targeting either CTTN exon 8 or HLA-DRA, as well as Cas9, one universal RGN, and either one or two transfer vectors with expression cassettes conferring resistance to puromycin or puromycin and hygromycin. A total of 450,000 cells were transfected using 100 ng of each plasmid. The transfection efficiency was ˜55% as determined by FACS following delivery of a control GFP expression plasmid. Three days post transfection, 90% of cells from each well were harvested and replated into 10 cm dishes for selection with the appropriate antibiotics. Cells with monoallelic modifications were selected with puromycin whereas cells with biallelic modifications were selected with puromycin and hygromycin. Media and antibiotics were replenished every three days. Visible colonies appeared after approximately after one week. The number of clones for each transfection was counted and integration efficiency was determined as the ratio of the number of clonal cells derived from each transfection relative to the number of alleles modified by each specific sgRNA, as measured in experimental control samples using the surveyor assay.
Following selection in 10-cm plates with the appropriate antibiotic, total colonies were counted and divided by total cells transfected to obtain the overall editing efficiency of NAVI. This value was then adjusted to account for overall sgRNA editing efficiency, as measured by surveyor nuclease assay. This quantification was performed at 2 different loci using either a single or two antibiotics for selection.

[4] = selection Puromycin + Hygromycin

| Compound | ratio of gene expression between samples with and without doxycycline treatment ([1]; heterozygous clones) [fold] | ratio of gene expression between samples with and without doxycycline treatment ([1]; homozygous clones) [fold] | ratio of gene expression between samples with and without doxycycline treatment ([1]; pooled cells) [fold] | induction of NEUROD1 ([2]; 12 h) [fold] | induction of NEUROD1 ([2]; 24 h) [fold] | induction of NEUROD1 ([2]; 48 h) [fold] | induction of NEUROD1 ([2]; 96 h) [fold] | increase in NEUROD1 gene expression ([2]; doxycycline 2 ng/mL, 96 h) [fold] | increase in NEUROD1 gene expression ([2]; doxycycline 2 μg/mL, 96 h) [fold] | % Efficiency (adjusted by indel %) ([3]; selection Puromycin) [%] | % Efficiency (colonies/transfected cells) ([3]; selection Puromycin) [%] | % Efficiency (adjusted by indel %) [3, 4] [%] | % Efficiency (colonies/transfected cells) [3, 4] [%] | Avg. Colonies [3, 4] | Avg. Colonies ([3]; selection Puromycin) |
| --- | --- | --- | --- | --- | --- | --- | --- | --- | --- | --- | --- | --- | --- | --- | --- |
| C[C@H]1c2cccc(O)c2C(=O)C2=C(O)[C@]3(O)C(=O)C(C(N)=O)=C(O)[C@@H](N(C)C)[C@@H]3[C@@H](O)[C@@H]21 [doxycycline] | ~426 | ~1486 | ~22 | ~4000 | ~5000 | ~10000 | ~15000 | ~337 | ~26015 | – | – | – | – | – | – |
| CTTN exon 8: sgRNA, protospacer GCGCTCTTGTCTACTCGGT, SEQ ID NO 8 (expressed or natural sequence) | – | – | – | – | – | – | – | – | – | 12.00 | 0.38 | 5.00 | 0.16 | 725 | 1726 |
| HLA-DRA: sgRNA, protospacer GCTGTGCTGATGAGCGCTC, SEQ ID NO 9 (expressed or natural sequence) | – | – | – | – | – | – | – | – | – | 26.40 | 0.58 | 4.60 | 0.10 | 453 | 2610 |
